Measurements from patent US20110092462A1, “USE OF HIGH-DOSE OXAZAPHOSPHORINE DRUGS FOR TREATING IMMUNE DISORDERS” (The Johns Hopkins University, priority 2005, published 2011).
Where two headings read alike, the source gives them in different places.

Columns and labels:
[1] = system: patients with refractory autoimmune hemolytic anemia
Excerpt: The median hemoglobin at the time of treatment was 6.7 (range; 5-10) g/dl and 8 of the 9 patients were dependent on erythrocyte transfusions.

[2] = system: SAA patients; details: for mortality within 6 months after treatment / patients achieving remission: 38 newly diagnosed patients
Excerpt: Response was defined as ANC >1000/d1 and transfusion independence without growth factor support for >3 months. Relapse was defined as no longer meeting criteria for response. Development of paroxysmal nocturnal hemoglobinuria was monitored by flow cytometry.
The median age of the newly diagnosed patients was 40 (range 2-68) years.

[3] = system: patients with severe refractory autoimmune disorders
[4] = system: HLA-specific antibodies in SAA patients
[5] = system: patients with myasthenia gravis; details: 7 patients refractory to conventional immunosuppressive therapy
[6] = system: patient with pemphigus vulgaris
[7] = system: previously untreated SAA patients
[8] = system: patients with aggressive MS; details: eight patients
Description: Open-label trial of patients with aggressive MS were given an up-front regimen of 50 mg/kg/d for four consecutive days. Enrolled patients had aggressive MS as defined by 2 or more total gadolinium enhancing lesions on each of two pretreatment MRI scans; at least one clinical exacerbation in the last year despite being on conventional MS therapy; and sustained increase of >1.0 on the EDSS in the preceding year.
All patients developed transient severe neutropenia, an expected consequence, followed by immune reconstitution in 10-17 days.

[9] = system: SAA patients; details: 10 SAA patients
[10] = system: patients with moderate to severe systemic lupus erythematosus (SLE)
[11] = system: patients with HAA
Description: Serology/PCR for HAV, HBV, HCV, EBV, and CMV were negative. All patients met criteria for very severe aplastic anemia pretreatment: bone marrow cellularity <25%, ANC <200 μL, platelet count <20,000/μL, absolute reticulocyte count <60,000/μL. Infection prophylaxis consisted of trimethoprim/sulfamethoxazole, G-CSF, and fluconazole.

[12] = system: patient with paraneoplastic pemphigus
[13] = after the last dose of cyclophosphamide
[14] = 50 mg/kg/d for four consecutive days

O=P1(N(CCCl)CCCl)NCCCO1 (centres unmarked) [high-dose cyclophosphamide, cyclophosphamide]
complete remission (normal untransfused hemoglobin for age and sex) ([1]; 9 patients): 6 patients
median time to a neutrophil count of 500 per μL ([1]; 9 patients): 16 days
median time to platelet transfusion independence ([1]; 9 patients): 15 days
partial remission (hemoglobin >10.0 g/dl without support of transfusions) ([1]; 9 patients): 3 patients
responded and became transfusion independent ([1]; 9 patients): All patients
patients able to discontinue steroids ([1]; in vivo): 7 of the 9
relapses ([1]; median follow-up of 15 (range 4-29) months): no relapses
PNH clone ([2]; 12 patients with a PNH population): regressing in all 12 patients
durable remission ([2]; 12 patients with a PNH population 0.5-40% of granulocytes, p=0.039): all 12
patients in remission ([2]; 17 patients who failed immunosuppressive therapy): nine
additional patient died from bacterial sepsis ([2]; 18 months after treatment): 1 patient
mortality within 6 months after treatment [2]: 10.5%
patients achieving remission ([2]; 95% CI 58-85%): 74%
mortality within 6 months after treatment ([2]; all with vSAA): 4 patients
patients achieving remission ([2]; most complete): 28 patients
patients in remission ([2]; SAA (not very severe) subgroup of 23): 20 patients
patients surviving in remission ([2]; eight patients with a severe infection at beginning of treatment): 5 patients
median time to ANC of 500 ([2]; newly diagnosed patients): 50 days
median time to last platelet transfusion ([2]; newly diagnosed patients): 99 days
median time to last red cell transfusion ([2]; newly diagnosed patients): 181 days
patients relapsed ([2]; newly diagnosed series): Two patients
progression to PNH or MDS ([2]; newly diagnosed series): No patient
actuarial survival ([2]; newly diagnosed, 95% CI 72-95%): 86%
patients surviving ([2]; newly diagnosed, median follow-up 41 (range 6-111) months): 33/38
patients alive ([2]; patients who failed immunosuppressive therapy): Ten of the 17
patients in remission ([2]; vSAA subgroup of 15): 10 patients
median time to a neutrophil count of 500 per μL [3, 13]: 17 days
median time to platelet transfusion independence [3, 13]: 16 days
complete remission ([3]; eight patients): five
marked clinical improvement ([3]; eight patients): Seven patients
partial remission ([3]; eight patients): 2
marked reduction in anti-HLA antibody titer ([4]; after treatment): All four responders
complete remission of the SAA ([4]; five patients with HLA-specific antibodies): four of these five
anti-HLA antibody completely eradicated ([4]; of four responders): three
markedly improved, and returned to full activity [5]: All of these patients
pathogenic autoantibodies specific for the disease ([6]; after treatment): undetectable
remission ([6]; in vivo): durable complete remissions
began to recover neutrophils ([6]; one patient): ≤ 9 days
need for red cell transfusions ([6]; one patient): did not require red cell transfusions
platelet transfusions received ([6]; one patient): 2
median time to a neutrophil count of 500 μL ([7]; 19 patients): 49 days
probability of achieving treatment-free remission ([7]; 19 patients, 95% CI 51-91%): 73%
probability of survival ([7]; at 24 months, 19 patients, 95% CI 59-95%): 84%
relapse or secondary clonal disorders ([7]; responding patients): No responding patients
brain atrophy [8]: slowed in several patients
clinical exacerbation following treatment [8]: No patient
improvement in the MSFC following treatment [8]: most patients
reduction in EDSS following treatment [8]: most patients
reduction or elimination of new and enhancing lesions on the MRI [8]: All patients
time to immune reconstitution after neutropenia [8, 14]: 10 to 17 days
transient severe neutropenia [8, 14]: All patients
unexpected grade 3 or 4 adverse event [8, 14]: no patients
complete remission (normocellular bone marrow, hemoglobin >13.0 g/dl, neutrophil count >[…]10^9/L, platelet count greater than 125×10^9/L) [9]: seven of ten
deaths or fungal infections ([10]; 14 patients): no deaths or fungal infections
durable complete responses ([10]; 14 patients): 5
median time to a neutrophil count of 500 μl ([10]; after the last dose, range 11 to 22 days, 14 patients): 14 days
improvement in Physicians Global Assessment, mean difference ([10]; p<0.0001): 1.3
improvement in prednisone dosage, mean difference ([10]; p=0.01): 12.8 mg
improvement in systemic lupus erythematosus disease activity index, mean difference ([10]; p=0.042): 3.5
median day to last platelet transfusion ([10]; range 0 to 23): 16 days
median transfusions of packed red blood cells required ([10]; range 2 to 5): 2 transfusions
duration of remission after treatment without further immune suppression ([11]; 4 patients with hematopoietic responses): up to 6 years
autoimmune hepatitis (AIH) status ([11]; Patient 2): remains in remission
hematologic response ([11]; Patient 5, proceeded to unrelated BMT after 5 months): no hematopoietic response
hematopoietic recovery ([11]; five patients, 50 mg/kg/day IV×4 days plus mesna): Four patients
durable remissions in hepatitis-associated aplastic anemia ([11]; follow-up 1-6 years): 4 of 5
median time to ANC >500/μL ([11]; range 44-369): 51 days
median time to transfusion independence for platelets ([11]; range 48-679): 160 days
median time to transfusion independence for erythrocytes ([11]; range 57-679): 109 days
death from treatment failure ([11]; series of 5 patients): one death
pathogenic autoantibodies specific for the disease ([12]; after treatment): undetectable
remission ([12]; in vivo): durable complete remissions
need for blood products ([12]; one patient): did not require blood products
recovery to a neutrophil count of greater than 500 per μL ([12]; one patient): ≤ 15 days
